Marks after values point to notes of the source that are not given here.
Tests used:
[1] = tested on: Malonedealdehyde in the Brain of Rats Injected with Autoblood; assay: Malonedealdehyde (lipid peroxide) content in the brain of autoblood-injected rats; type: in vivo, Male Wistar rats; conditions: 300 mg/kg i.p. once a day; right hemispherical brain on the fourth day after the operation; control 168±15
Description: Male Wistar rats (weighing about 300 g) were anesthesized with pentobarbital (40 mg/kg i.e.) and fixed on a brain normal position fixing device. In order to form hematoma in the brain, 0.2 cc of autoblood previously collected from the tail vein was injected in the site of the brain at 4 mm to the right from the arrow suture, at 2 mm to the tail side from the crown suture and at 4 mm of the brain surface. The left rear paw was forced onto a stand having a height of 4.5 cm and the time from which the forced posture was maintained was measured and evaluated as neural condition. The ester was intraperitoneally administered immediately after the injection of autoblood and then once a day. Physiological saline alone was given to the control group. […]
Immediately after the observation of the neural condition on the fourth day of the operation, the head of each rat was cut off and the right hemispherical brain was isolated. The lipid peroxides in the brain were fluorometrically determined by forming about 10% of a homogenate with 1.15% potassium chloride, taking 0.1 ml of the homogenate and measuring using malonedealdehyde as a standard substance according to Yagi's method.
Futher in Table IV are shown the results of the effect on malonedealdehyde in the brain. The results were evaluated by the Student's t-test. […]

[2] = Acute toxicity (LD50) on intraperitoneal injection into mice; conditions: mouse, in vivo, ip, read-out: acute toxicity (LD₅₀)
From the text: The isopropyl ester (I) and salts have an acute toxicity (LD₅₀) of approximately 5.3 g/kg on intraperitoneal injection into mice.

low oxygen-loaded mice = assay: Survival time of low oxygen-loaded mice; type: in vivo, Male ICR mice; conditions: 300 mg/kg single dose 10 minutes before inhalation of 95.3% nitrogen / 4.7% oxygen; 14 animals; control 201±18
Description: Male ICR mice (weighing about 30 g) were put in a glass vessel having a volume of 2 liters, equipped with an inhalation opening and an exhaust opening. A gaseous mixture of 95.3% nitrogen and 4.7% oxygen was blown into the vessel at 5 ℓ/min. to cause a low oxygen state, and the time for mice to die was measured. The ester was intravenously administered 10 minutes before the inhalation of the gaseous mixture. Only physiological saline was given to the control group.
(1) mg/kg i.p.: amount of a single dose given. (2) Unit: second * 5%is a significant difference in death rate as compared to the control group (group given physiological saline).

[3] = tested on: rats ligated at carotids (both sides); assay: Death of rats ligated at both carotids (cerebral ischemia); type: in vivo, male Wistar rats; conditions: 300 mg/kg i.p. per single dose, given immediately after and 1 and 2 hours after ligation; dead animals 24 hours after ligation; 24 animals; control 21 dead
Description: Both carotids of male Wistar rats (weighting about 300 g) were permanently ligated to cause a cerebral ischemic state. The rats suffered neural conditions (paralysis or spasm of the limbs, etc.) and most of them died in 24 hours. The influence of the ester on death 24 hours afer ligation was examined. The ester was intraperitoneally administered immediately after the ligation, and 1 and 2 hours after the ligation. Physiological saline alone was given to the control group.
(1) mg/kg i.p.: amount of a single dose given. (2) Number of dead animals 24 hours after ligation *5% is a significant difference in death rate compared to the control group (group given physiological saline.

autoblood-injected rats = assay: Neural condition (duration of forced posture) of autoblood-injected rats; type: in vivo, Male Wistar rats; conditions: 300 mg/kg i.p. once a day, 30 minutes after administration
Description: Male Wistar rats (weighing about 300 g) were anesthesized with pentobarbital (40 mg/kg i.e.) and fixed on a brain normal position fixing device. In order to form hematoma in the brain, 0.2 cc of autoblood previously collected from the tail vein was injected in the site of the brain at 4 mm to the right from the arrow suture, at 2 mm to the tail side from the crown suture and at 4 mm of the brain surface. The left rear paw was forced onto a stand having a height of 4.5 cm and the time from which the forced posture was maintained was measured and evaluated as neural condition. The ester was intraperitoneally administered immediately after the injection of autoblood and then once a day. Physiological saline alone was given to the control group. The measurement of neural condition was made after the operation daily for 4 consecutive days, 30 minutes after administration.
(1) mg/kg i.p.: amount of a single dose given. (2) Unit: second (3) Number of days after the operation. *5% is a significant difference in duration as compared to the control group (group given physiological saline). **1% is a significant difference in duration as compared to the control group. Number of animals: 10 - 11.

CC(C)OC(=O)CNC(=O)[C@H](CS)NC(=O)CC[C@H](N)C(=O)O [Glutathione monoisopropyl ester, isopropyl γ-L-glutamyl-L-cysteinyl glycinate]
Content of Malonedealdehyde [1]: 97±20 nmol/g wet weight | LD50 [2]: ~5300 mg/kg | Survival Time (low oxygen-loaded mice): 262 ± 22 s | Number of Dead Animals [3]: 15* | Duration, Day 1 (autoblood-injected rats; Day 1 after the operation, control 42±10): 11 ± 5 s | Duration, Day 2 (autoblood-injected rats; Day 2 after the operation, control 53±12): 22 ± 11 s | Duration, Day 3 (autoblood-injected rats; Day 3 after the operation, control 43±11): 8 ± 1 s | Duration, Day 4 (autoblood-injected rats; Day 4 after the operation, control 31±10): 7 ± 1 s
